The numbers were not newly measured in PMC8597081, “Diphenylalanine Motif Drives Self‐Assembling in Hybrid PNA‐Peptide Conjugates” (Chemistry (Weinheim an Der Bergstrasse, Germany), 2021), which cites them from elsewhere.

The conditions of this data set: N3-protonated cytosine; N7-protonated guanine. The method, then: Nevertheless, as it can be seen in the 1D spectra (Figure S12) even at 46.9 mM concentration, the absence of a signal at low field arising from the imino proton let speculate that guanine and cytosine are not paired.

SMILES strings stand for the structures.

What is called pKa is the negative logarithm of the acid dissociation constant. As to `Nc1cc[nH]c(=O)n1` [cytosine], the pKa is 4.2.

For `Nc1nc2nc[nH]c2c(=O)[nH]1` [guanine], the pKa is reported as 1.9–2.2.
